Measured values from patent US20100204295A1, “TREATMENT OF ALLERGIC DISEASE WITH IMMUNOMODULATOR COMPOUNDS” (SCICLONE PHARMACEUTICALS, INC., priority 2007, published 2010).
“And” between values parts separate entries of the source, which are not always exact repeats. Equal entries are not always repeated. “Also recorded” adds a separate entry of the source.

Key:
[1] = system: thymocyte and lymphocyte proliferation; settings: cited from earlier work
[2] = system: immediate allergic reaction to OVA aerosol; test: Immediate response to aerosol, comments recorded during aerosolization, guinea pig model; assay type: in vivo, Dunkin-Hartley guinea pigs; settings: one animal per line, listed as SCV
Experimental: Female Dunkin-Hartley guinea pigs (200-350 g) were purchased from Charles River, Kingston, New York facility, Barrier […]. Animals were shipped to Duluth, Minn., and held in our animal facility for 5-7 days prior to beginning the experiment. Experimental treatment groups are outlined in Table 7. Animals were sensitized on day 0 ip with 50 mg/kg OVA. On Days 17, 18, 19, and 20, animals received an ip injection between 8 and 10 am with PBS, SCV-07 at 1 ug/kg, or SCV-07 at 10 ug/kg (Peptide treatment). Between 8 and 10 a.m. on Day 21, animals were administered peptide 2 hours before OVA or saline (NSS) aerosol challenge. 30 min before OVA or NSS aerosol challenge each animal was injected ip with an antihistamine (6.1 mg/kg pyrilamine maleate) to prevent death due to the anaphylactic response that accompanies aerosol OVA challenge. Animals were exposed to aerosol in pairs with either 1% OVA solution or NSS for 5 min in a plexiglass chamber (22×22×29 cm) using a DeVilbiss Model 35B Ultrasonic Nebulizer. Animals were observed during the total 5 min aerosolization and comments recorded. Within 22-24 hours after challenge, animals were euthanized, bled by cardiac puncture, lavaged and lung lobes removed for measurement of cellular infiltration. At the time of OVA or NSS challenge and euthanasia, animal weights ranged from approximately 350-550 g, with the average weight approximately 420 g. This experimental protocol is similar to that used in previously published studies (Regal and Fraser, 1996; Regal et al., 2000). The experimenter was not blinded to the treatment. […] In general, animals sensitized and challenged with OVA and antihistamine pre-treated will not die from the allergen challenge, but will experience labored breathing and oftentimes coughing and gasping. All 7 animals in the PBS OVA treatment group had some visible reaction as expected. The remarkable finding was the number of animals in the SCV 1 OVA and SCV 10 OVA treatment groups that had no apparent reaction to the OVA aerosol. […] The obvious speculation is that SCV-07 attenuates the immediate bronchoconstriction to allergen challenge. Follow-up experiments are definitely indicated by this observation.

OVA specific IgG1 = OVA specific IgG1 in serum by ELISA, guinea pig model; assay type: in vivo, Dunkin-Hartley guinea pigs; settings: 1 or 10 ug/kg ip days 17-21
Experimental: Animals were sensitized on day 0 ip with 50 mg/kg OVA. On Days 17, 18, 19, and 20, animals received an ip injection between 8 and 10 am with PBS, SCV-07 at 1 ug/kg, or SCV-07 at 10 ug/kg (Peptide treatment). Between 8 and 10 a.m. on Day 21, animals were administered peptide 2 hours before OVA or saline (NSS) aerosol challenge. 30 min before OVA or NSS aerosol challenge each animal was injected ip with an antihistamine (6.1 mg/kg pyrilamine maleate) to prevent death due to the anaphylactic response that accompanies aerosol OVA challenge. Animals were exposed to aerosol in pairs with either 1% OVA solution or NSS for 5 min in a plexiglass chamber (22×22×29 cm) using a DeVilbiss Model 35B Ultrasonic Nebulizer. Animals were observed during the total 5 min aerosolization and comments recorded. Within 22-24 hours after challenge, animals were euthanized, bled by cardiac puncture, lavaged and lung lobes removed for measurement of cellular infiltration. At the time of OVA or NSS challenge and euthanasia, animal weights ranged from approximately 350-550 g, with the average weight approximately 420 g. […]
OVA specific IgG1 in serum was determined by ELISA as previously described (Fraser et al., 1998; Regal et al., 2000). The data were expressed as the concentration of OVA specific IgG1 in the sample divided by the concentration of OVA specific IgG1 in the standard, defined as 1. […]

pollinosis = test: Case report: SCV-07 before specific immunotherapy of pollinosis; assay type: in vivo, human; settings: SCV-07 perorally 1.5 mg once a day for 10 days, 15 days before SIT; season April-June 2006
Experimental: Patient.—P-na M. N., 45 years. Date of first consultation—October 2004. From the end of November 2004 to mid-March 2005, the patient underwent specific immunotherapy (SIT) for pollinosis, using the allergoid (“Puretal-tree”) according to the scheme: subcutaneous once a week, beginning with a single dose of the administered allergoid of 0.025 mL, the subsequent dose are escalated during the course of treatment until reaching a single dose of 0.5 mL (0.025 mL-0.05 mL, −0.1 mL-0.2 mL-0.3 mL-0.4 mL-0.5 mL), and the following does are staying on this dose. Considering the above situation, during October 2005, to increase the clinical effectiveness of SIT, under initiating or anticipatory conditions, immune stimulation—a course of the preparation “SCV-07” —was perorally administered as follows: 1.5 mg once a day daily for 10 days in a row. On completion of the “SCV-07” course, the patient, from the middle of November 2005 through mid-March 2006, underwent another course of SIT for pollinosis, using the allergoid “Puretal-tree” according to the previous scheme. The interval between the “SCV-07” course and the beginning of the SIT course for pollinosis was 15 days.

SMILES: N[C@H](CCC(=O)N[C@@H](Cc1c[nH]c2ccccc12)C(=O)O)C(=O)O [SCV-07, γ-D-glutamyl-L-tryptophan]
- Con-A-induced thymocyte and lymphocyte proliferation [1]: increases
- Comment recorded during aerosolization ([2]; SCV 1 NSS: SCV-07 1 ug/kg ip, NSS aerosol): huddling in corner; also recorded: no rx
- Comment recorded during aerosolization ([2]; SCV 1 OVA: SCV-07 1 ug/kg ip, OVA aerosol): slight cough 1x? and 1 cough?
- Comment recorded during aerosolization ([2]; SCV 10 NSS: SCV-07 10 ug/kg ip, NSS aerosol): huddling in corner, no rx
- Comment recorded during aerosolization ([2]; SCV 10 OVA: SCV-07 10 ug/kg ip, OVA aerosol): no rx (3×) and slight cough and 1 cough? and deeper breathing (2×)
- Concentration of OVA specific IgG1 antibody in the serum (OVA specific IgG1): did not significantly affect
- Seasonal rhinoconjunctival symptoms after SIT preceded by SCV-07 course (pollinosis): seasonal rhinoconjunctival symptoms were virtually absent
